Results as given in ChEMBL document CHEMBL4507273 (2021).

Tests used:
[1] = target: Sigma non-opioid intracellular receptor 1 (Homo sapiens) (UniProt Q99720); conditions: Compound concentration 10.0 uM
[2] = target: Tyrosine-protein kinase CSK (Homo sapiens) (UniProt P41240); conditions: Compound concentration 1000.0 nM
[3] = target: cAMP-dependent protein kinase catalytic subunit alpha (Homo sapiens) (UniProt P17612); conditions: Compound concentration 1000.0 nM
[4] = target: Homeodomain-interacting protein kinase 3 (Homo sapiens) (UniProt Q9H422); conditions: Compound concentration 1000.0 nM
[5] = tested on: Epidermal growth factor receptor (Homo sapiens), P00533 [G719S]; conditions: Compound concentration 1000.0 nM
[6] = tested on: Phosphatidylinositol 4,5-bisphosphate 3-kinase catalytic subunit alpha isoform (Homo sapiens), P42336 [E542K]; conditions: Compound concentration 1000.0 nM
[7] = target: Tyrosine-protein kinase Fyn (Homo sapiens) (UniProt P06241); conditions: Compound concentration 1000.0 nM
[8] = target: Phosphatidylinositol 4,5-bisphosphate 3-kinase catalytic subunit delta isoform (Homo sapiens) (UniProt O00329); conditions: Compound concentration 1000.0 nM
[9] = target: Dual specificity tyrosine-phosphorylation-regulated kinase 1B (Homo sapiens) (UniProt Q9Y463); conditions: Compound concentration 1000.0 nM
[10] = target: Cyclin-dependent kinase-like 1 (Homo sapiens) (UniProt Q00532); conditions: Compound concentration 1000.0 nM
[11] = tested on: Fibroblast growth factor receptor 3 (Homo sapiens), P22607 [G697C]; conditions: Compound concentration 1000.0 nM
[12] = target: Death-associated protein kinase 2 (Homo sapiens) (UniProt Q9UIK4); conditions: Compound concentration 1000.0 nM
[13] = tested on: Hepatocyte growth factor receptor (Homo sapiens), P08581 [M1250T]; conditions: Compound concentration 1000.0 nM
[14] = target: Serine/threonine-protein kinase WNK1 (Homo sapiens) (UniProt Q9H4A3); conditions: Compound concentration 1000.0 nM
[15] = tested on: Phosphatidylinositol 4,5-bisphosphate 3-kinase catalytic subunit alpha isoform (Homo sapiens), P42336 [C420R]; conditions: Compound concentration 1000.0 nM
[16] = target: Aurora kinase A (Homo sapiens) (UniProt O14965); conditions: Compound concentration 1000.0 nM
[17] = target: Serine/threonine-protein kinase PAK 4 (Homo sapiens) (UniProt O96013); conditions: Compound concentration 1000.0 nM
[18] = target: Macrophage colony-stimulating factor 1 receptor (Homo sapiens) (UniProt P07333); conditions: Compound concentration 1000.0 nM
[19] = tested on: Leucine-rich repeat serine/threonine-protein kinase 2 (Homo sapiens), Q5S007 [G2019S]; conditions: Compound concentration 1000.0 nM
[20] = target: cAMP-dependent protein kinase catalytic subunit PRKX (Homo sapiens) (UniProt P51817); conditions: Compound concentration 1000.0 nM
[21] = target: Serine/threonine-protein kinase SIK3 (Homo sapiens) (UniProt Q9Y2K2); conditions: Compound concentration 1000.0 nM
[22] = target: Myosin light chain kinase, smooth muscle (Homo sapiens) (UniProt Q15746); conditions: Compound concentration 1000.0 nM
[23] = target: Alpha-1B adrenergic receptor (Homo sapiens) (UniProt P35368); conditions: Compound concentration 10.0 uM
[24] = target: Serine/threonine-protein kinase PknB (Mycobacterium tuberculosis) (UniProt P9WI81); conditions: Compound concentration 1000.0 nM
[25] = target: Serine/threonine-protein kinase D3 (Homo sapiens) (UniProt O94806); conditions: Compound concentration 1000.0 nM
[26] = target: Cyclin-dependent kinase 15 (Homo sapiens) (UniProt Q96Q40); conditions: Compound concentration 1000.0 nM
[27] = target: Ribosomal protein S6 kinase alpha-1 (Homo sapiens) (UniProt Q15418); conditions: Compound concentration 1000.0 nM
[28] = target: Calcium/calmodulin-dependent protein kinase type 1G (Homo sapiens) (UniProt Q96NX5); conditions: Compound concentration 1000.0 nM
[29] = target: Myosin light chain kinase 2, skeletal/cardiac muscle (Homo sapiens) (UniProt Q9H1R3); conditions: Compound concentration 1000.0 nM
[30] = target: Serine/threonine-protein kinase PAK 5 (Homo sapiens) (UniProt Q9P286); conditions: Compound concentration 1000.0 nM
[31] = target: Vascular endothelial growth factor receptor 2 (Homo sapiens) (UniProt P35968); conditions: Compound concentration 1000.0 nM
[32] = target: Serine/threonine-protein kinase/endoribonuclease IRE1 (Homo sapiens) (UniProt O75460); conditions: Compound concentration 1000.0 nM
[33] = target: Serine/threonine-protein kinase TAO2 (Homo sapiens) (UniProt Q9UL54); conditions: Compound concentration 1000.0 nM
[34] = target: T1, Testis-specific serine/threonine-protein kinase 1 (Homo sapiens) (UniProt Q9BXA7); conditions: Compound concentration 1000.0 nM
T1 sequence (whole entry): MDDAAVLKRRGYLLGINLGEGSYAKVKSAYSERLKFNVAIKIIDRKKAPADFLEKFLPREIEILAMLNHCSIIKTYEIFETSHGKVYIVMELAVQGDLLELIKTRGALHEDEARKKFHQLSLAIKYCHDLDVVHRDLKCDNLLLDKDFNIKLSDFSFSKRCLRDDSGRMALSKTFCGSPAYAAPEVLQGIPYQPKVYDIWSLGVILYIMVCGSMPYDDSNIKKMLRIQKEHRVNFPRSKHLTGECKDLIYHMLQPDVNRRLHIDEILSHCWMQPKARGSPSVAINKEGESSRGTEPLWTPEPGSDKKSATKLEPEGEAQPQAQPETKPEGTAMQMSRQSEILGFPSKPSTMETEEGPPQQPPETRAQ

[35] = tested on: Epidermal growth factor receptor (Homo sapiens), P00533 [UNDEFINED MUTATION]; conditions: Compound concentration 1000.0 nM
[36] = target: Histamine H1 receptor (Homo sapiens, UniProt P35367); conditions: Compound concentration 10.0 uM
[37] = tested on: Proto-oncogene tyrosine-protein kinase receptor Ret (Homo sapiens), P07949 [V804L]; conditions: Compound concentration 1000.0 nM
[38] = target: Serine/threonine-protein kinase NLK (Homo sapiens) (UniProt Q9UBE8); conditions: Compound concentration 1000.0 nM
[39] = target: Bone morphogenetic protein receptor type-2 (Homo sapiens) (UniProt Q13873); conditions: Compound concentration 1000.0 nM

Sequence of Proto-oncogene tyrosine-protein kinase receptor Ret (Homo sapiens), P07949 [V804L] (P07949 whole entry V804L): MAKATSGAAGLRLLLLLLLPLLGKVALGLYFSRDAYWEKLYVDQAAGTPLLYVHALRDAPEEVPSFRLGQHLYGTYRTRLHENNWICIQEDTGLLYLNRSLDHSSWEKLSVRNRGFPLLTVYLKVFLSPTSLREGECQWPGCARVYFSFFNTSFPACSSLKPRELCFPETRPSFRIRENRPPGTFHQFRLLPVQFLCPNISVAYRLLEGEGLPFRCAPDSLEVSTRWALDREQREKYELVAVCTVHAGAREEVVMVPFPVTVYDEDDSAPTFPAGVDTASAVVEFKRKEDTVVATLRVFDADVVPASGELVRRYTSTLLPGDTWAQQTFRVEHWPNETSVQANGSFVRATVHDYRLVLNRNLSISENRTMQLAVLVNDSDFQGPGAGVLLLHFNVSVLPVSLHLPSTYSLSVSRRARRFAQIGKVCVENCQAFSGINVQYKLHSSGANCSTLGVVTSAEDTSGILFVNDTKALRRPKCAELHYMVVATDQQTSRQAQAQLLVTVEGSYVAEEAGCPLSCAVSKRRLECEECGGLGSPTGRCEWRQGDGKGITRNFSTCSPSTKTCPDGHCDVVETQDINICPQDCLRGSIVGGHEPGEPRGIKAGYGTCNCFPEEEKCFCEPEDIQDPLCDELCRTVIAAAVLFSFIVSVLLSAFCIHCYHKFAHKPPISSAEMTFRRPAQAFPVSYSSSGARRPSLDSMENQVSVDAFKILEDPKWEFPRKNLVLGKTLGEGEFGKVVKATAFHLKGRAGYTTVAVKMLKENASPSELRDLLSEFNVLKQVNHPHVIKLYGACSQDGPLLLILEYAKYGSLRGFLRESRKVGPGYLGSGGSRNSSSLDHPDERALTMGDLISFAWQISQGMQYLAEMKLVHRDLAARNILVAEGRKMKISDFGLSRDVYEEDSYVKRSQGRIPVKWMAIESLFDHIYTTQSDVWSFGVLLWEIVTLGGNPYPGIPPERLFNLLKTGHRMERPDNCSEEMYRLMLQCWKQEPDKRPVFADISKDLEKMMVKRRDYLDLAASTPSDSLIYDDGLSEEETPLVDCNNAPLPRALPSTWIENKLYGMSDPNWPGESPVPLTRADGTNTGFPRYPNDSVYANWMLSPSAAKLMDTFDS
Sequence of Serine/threonine-protein kinase PknB (Mycobacterium tuberculosis) (P9WI81 whole entry): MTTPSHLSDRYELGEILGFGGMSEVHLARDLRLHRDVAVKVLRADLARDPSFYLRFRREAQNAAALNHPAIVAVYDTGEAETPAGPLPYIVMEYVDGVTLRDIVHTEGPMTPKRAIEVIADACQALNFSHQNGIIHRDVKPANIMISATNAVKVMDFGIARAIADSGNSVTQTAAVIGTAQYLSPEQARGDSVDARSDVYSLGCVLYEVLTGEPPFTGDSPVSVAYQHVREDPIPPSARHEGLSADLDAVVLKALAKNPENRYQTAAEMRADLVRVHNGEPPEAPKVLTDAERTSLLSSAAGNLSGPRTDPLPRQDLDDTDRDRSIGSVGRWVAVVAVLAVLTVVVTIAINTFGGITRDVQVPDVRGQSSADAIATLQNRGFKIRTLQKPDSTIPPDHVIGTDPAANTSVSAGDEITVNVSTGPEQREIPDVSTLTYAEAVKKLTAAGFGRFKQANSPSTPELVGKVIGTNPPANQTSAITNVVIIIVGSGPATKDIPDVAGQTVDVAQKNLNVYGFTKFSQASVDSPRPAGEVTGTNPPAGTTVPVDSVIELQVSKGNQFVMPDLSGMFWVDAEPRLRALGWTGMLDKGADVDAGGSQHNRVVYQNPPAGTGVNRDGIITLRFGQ
Sequence of Dual specificity tyrosine-phosphorylation-regulated kinase 1B (Homo sapiens) (Q9Y463 whole entry, looked up): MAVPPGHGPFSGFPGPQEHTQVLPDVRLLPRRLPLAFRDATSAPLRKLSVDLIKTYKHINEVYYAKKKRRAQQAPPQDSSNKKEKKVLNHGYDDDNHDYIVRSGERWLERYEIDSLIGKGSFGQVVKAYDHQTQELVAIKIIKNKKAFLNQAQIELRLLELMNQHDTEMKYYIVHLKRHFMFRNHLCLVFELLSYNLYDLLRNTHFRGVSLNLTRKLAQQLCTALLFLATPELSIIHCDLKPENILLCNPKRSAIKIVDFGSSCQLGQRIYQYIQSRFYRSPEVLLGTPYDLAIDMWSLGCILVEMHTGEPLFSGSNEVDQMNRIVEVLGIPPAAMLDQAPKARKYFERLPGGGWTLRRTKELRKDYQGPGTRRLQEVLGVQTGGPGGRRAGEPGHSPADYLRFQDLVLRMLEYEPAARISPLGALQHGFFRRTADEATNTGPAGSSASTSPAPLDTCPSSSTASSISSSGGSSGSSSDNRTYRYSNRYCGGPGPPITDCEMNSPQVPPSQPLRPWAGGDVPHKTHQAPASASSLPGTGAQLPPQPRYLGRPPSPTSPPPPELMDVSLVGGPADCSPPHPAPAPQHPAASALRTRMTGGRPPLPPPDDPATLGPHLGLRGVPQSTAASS
Sequence of Myosin light chain kinase, smooth muscle (Homo sapiens) (Q15746 whole entry): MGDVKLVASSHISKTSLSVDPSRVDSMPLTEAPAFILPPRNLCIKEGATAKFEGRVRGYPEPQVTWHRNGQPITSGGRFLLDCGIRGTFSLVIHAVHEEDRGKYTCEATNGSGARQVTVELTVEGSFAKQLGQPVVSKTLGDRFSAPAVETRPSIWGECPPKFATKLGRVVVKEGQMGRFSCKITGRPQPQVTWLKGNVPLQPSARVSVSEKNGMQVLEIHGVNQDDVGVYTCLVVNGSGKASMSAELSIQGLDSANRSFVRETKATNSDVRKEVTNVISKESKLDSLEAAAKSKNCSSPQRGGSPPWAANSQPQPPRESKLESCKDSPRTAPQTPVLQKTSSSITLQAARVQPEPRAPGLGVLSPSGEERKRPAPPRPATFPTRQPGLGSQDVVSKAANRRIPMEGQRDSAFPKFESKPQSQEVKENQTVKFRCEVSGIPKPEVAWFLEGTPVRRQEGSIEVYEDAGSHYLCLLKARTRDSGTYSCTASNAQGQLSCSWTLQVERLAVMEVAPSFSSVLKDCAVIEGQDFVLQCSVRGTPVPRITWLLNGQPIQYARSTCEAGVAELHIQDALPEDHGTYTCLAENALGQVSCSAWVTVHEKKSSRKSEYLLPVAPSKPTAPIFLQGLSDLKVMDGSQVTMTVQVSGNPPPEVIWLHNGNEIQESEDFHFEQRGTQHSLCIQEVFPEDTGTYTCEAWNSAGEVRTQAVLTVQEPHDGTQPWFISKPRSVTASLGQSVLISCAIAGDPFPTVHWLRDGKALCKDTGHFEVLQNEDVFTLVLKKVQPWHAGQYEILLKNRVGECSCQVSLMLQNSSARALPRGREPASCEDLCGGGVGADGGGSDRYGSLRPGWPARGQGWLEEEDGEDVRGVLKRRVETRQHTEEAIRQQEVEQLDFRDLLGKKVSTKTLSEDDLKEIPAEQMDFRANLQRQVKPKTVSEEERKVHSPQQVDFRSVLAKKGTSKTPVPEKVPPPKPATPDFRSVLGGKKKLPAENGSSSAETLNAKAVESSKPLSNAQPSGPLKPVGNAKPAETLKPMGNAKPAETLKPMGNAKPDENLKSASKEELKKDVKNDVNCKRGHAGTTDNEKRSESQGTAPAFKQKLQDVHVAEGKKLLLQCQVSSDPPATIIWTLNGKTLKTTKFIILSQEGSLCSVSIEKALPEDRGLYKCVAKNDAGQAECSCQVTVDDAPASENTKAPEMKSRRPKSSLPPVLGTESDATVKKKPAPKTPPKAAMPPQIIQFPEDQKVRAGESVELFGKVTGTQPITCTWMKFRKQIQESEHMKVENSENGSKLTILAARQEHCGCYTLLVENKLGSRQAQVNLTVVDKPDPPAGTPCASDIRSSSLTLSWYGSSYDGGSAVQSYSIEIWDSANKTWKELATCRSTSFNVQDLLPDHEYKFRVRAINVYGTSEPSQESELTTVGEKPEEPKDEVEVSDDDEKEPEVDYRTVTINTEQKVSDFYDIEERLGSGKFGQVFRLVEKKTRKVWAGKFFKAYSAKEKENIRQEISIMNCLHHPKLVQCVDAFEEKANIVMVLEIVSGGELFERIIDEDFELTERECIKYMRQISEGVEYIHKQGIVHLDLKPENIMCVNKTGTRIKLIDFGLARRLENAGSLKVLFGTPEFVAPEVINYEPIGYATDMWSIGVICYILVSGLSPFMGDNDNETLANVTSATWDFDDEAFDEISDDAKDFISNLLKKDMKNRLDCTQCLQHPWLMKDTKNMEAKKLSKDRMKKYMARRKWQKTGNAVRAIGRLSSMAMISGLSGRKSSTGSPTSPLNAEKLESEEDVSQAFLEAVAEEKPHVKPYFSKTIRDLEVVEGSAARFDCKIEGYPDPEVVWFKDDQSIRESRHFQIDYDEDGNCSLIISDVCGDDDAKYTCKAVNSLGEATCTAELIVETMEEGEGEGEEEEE
Sequence of Tyrosine-protein kinase Fyn (Homo sapiens) (P06241 2-537 limits assumed): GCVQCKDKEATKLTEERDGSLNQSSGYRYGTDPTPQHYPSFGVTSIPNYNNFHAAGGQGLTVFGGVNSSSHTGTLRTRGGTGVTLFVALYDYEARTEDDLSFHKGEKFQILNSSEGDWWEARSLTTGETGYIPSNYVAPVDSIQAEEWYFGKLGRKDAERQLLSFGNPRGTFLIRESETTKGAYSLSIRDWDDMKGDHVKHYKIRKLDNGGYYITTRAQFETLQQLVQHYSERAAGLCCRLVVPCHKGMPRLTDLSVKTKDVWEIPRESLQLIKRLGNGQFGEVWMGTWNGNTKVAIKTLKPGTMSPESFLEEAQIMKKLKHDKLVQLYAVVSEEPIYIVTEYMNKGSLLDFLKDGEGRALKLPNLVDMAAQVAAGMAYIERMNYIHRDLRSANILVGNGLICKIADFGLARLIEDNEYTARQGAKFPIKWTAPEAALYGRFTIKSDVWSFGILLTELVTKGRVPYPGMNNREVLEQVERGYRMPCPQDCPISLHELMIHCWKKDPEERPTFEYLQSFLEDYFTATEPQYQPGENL
Sequence of Sigma non-opioid intracellular receptor 1 (Homo sapiens) (Q99720 whole entry): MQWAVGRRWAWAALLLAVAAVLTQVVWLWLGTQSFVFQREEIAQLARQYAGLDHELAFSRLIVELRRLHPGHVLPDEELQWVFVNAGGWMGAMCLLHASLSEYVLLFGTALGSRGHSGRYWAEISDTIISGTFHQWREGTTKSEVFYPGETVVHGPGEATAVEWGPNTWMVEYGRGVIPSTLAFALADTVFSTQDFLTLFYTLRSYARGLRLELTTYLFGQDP

| Compound | inhibition [1] [%] | residual activity [2] [%] | residual activity [3] [%] | residual activity [4] [%] | residual activity [5] [%] | residual activity [6] [%] | residual activity [7] [%] | residual activity [8] [%] | residual activity [9] [%] | residual activity [10] [%] | residual activity [11] [%] | residual activity [12] [%] | residual activity [13] [%] | residual activity [14] [%] | residual activity [15] [%] | residual activity [16] [%] | residual activity [17] [%] | residual activity [18] [%] | residual activity [19] [%] | residual activity [20] [%] | other results |
| --- | --- | --- | --- | --- | --- | --- | --- | --- | --- | --- | --- | --- | --- | --- | --- | --- | --- | --- | --- | --- | --- |
| CNCc1ccccc1-c1csc([C@@H](C)Nc2nc(C)nc3cc(OC)c(OC)cc23)c1 [BAY-293] | 22.6 | 100 | 100 | 83 | 69 | 80 | 100 | 75 | 64 | 93 | 85 | 100 | 79 | 88 | 81 | 73 | 97 | 100 | 72 | 67 | residual activity [21]: 90%; residual activity [22]: 84%; inhibition [23]: 85.8%; residual activity [24]: 76%; residual activity [25]: 92%; residual activity [26]: 100%; residual activity [27]: 76%; residual activity [28]: 93%; residual activity [29]: 91%; residual activity [30]: 95%; residual activity [31]: 93%; residual activity [32]: 100%; residual activity [33]: 86%; residual activity [34]: 59%; residual activity [35]: 63%; inhibition [36]: 49.4%; residual activity [37]: 73%; residual activity [38]: 84%; residual activity [39]: 100% |
| CNCc1ccccc1-c1csc([C@H](C)Nc2nc(C)nc3cc(OC)c(OC)cc23)c1 [BAY-294] | 49 | 100 | 100 | 97 | 84 | 88 | 100 | 100 | 55 | 100 | 100 | 100 | 96 | 100 | 97 | 73 | 100 | 100 | 84 | 76 | residual activity [21]: 78%; residual activity [22]: 94%; inhibition [23]: 94.7%; residual activity [24]: 90%; residual activity [25]: 100%; residual activity [26]: 100%; residual activity [27]: 93%; residual activity [28]: 96%; residual activity [29]: 100%; residual activity [30]: 100%; residual activity [31]: 91%; residual activity [32]: 100%; residual activity [33]: 90%; residual activity [34]: 93%; residual activity [35]: 81%; inhibition [36]: 56.7%; residual activity [37]: 99%; residual activity [38]: 100%; residual activity [39]: 100% |
